Assay [1] has as its target T1, Human V2 Vasopressin Receptor (Homo sapiens, UniProt P30518).
T1 construct: expressed in transfected cells; host or cells: mouse fibroblast cell line LV-2
Briefly: Binding to Membranes of Mouse Fibroblast Cell Line (LV-2) Transfected with the cDNA Expressing the Human V2 Vasopressin Receptor. As to conditions: ** LV-2 cell membranes. The method, then:
(a) Membrane Preparation Flasks of 175 ml capacity, containing attached cells grown to confluence, are cleared of culture medium by aspiration. […] The content of all flasks is poured into a centrifuge tube and the cells pelleted at 300× g for 15 min. The Hank's based solution is aspirated off and the cells homogenized with a polytron at setting #6 for 10 sec in 10.0 mM Tris.HCl buffer, pH 7.4 containing 0.25M sucrose and 1.0 mM EDTA. The homogenate is centrifuged at 1500× g for 10 min to remove ghost membranes. The supernatant fluid is centrifuged at 100,000× g for 60 min to pellet the receptor protein. […] (b) Receptor Binding […] Non specific binding is assessed in the presence of 1.0 μM of unlabeled ligand, added in 20 μl volume. […] The radioactivity trapped on the filter disk by the ligand-receptor complex is assessed by liquid scintillation counting in a Packard LS Counter, with an efficiency of 65% for tritium. The data are analyzed for IC50 values by the LUNDON-2 program for competition (LUNDON SOFTWARE, Ohio).

Assay [2] has as its target T2, Vasopressin V1 receptor subtype in Human Platelet Membranes (Homo sapiens, UniProt P37288).
T2 construct: tissue Hudson Valley Blood Services, Westchester Medical Center, Valhalla, N.Y; host or cells: human platelets (frozen platelet rich plasma)
Briefly: Binding to Vasopressin V1 receptor subtype in Human Platelet Membranes. The method, then:
Radioligand Binding Experiments with Human Platelet Membranes
(a) Platelet Membrane Preparation
Frozen platelet rich plasma (PRP), (Platelet Source: Hudson Valley Blood Services, Westchester Medical Center, Valhalla, N.Y.) are thawed to room temperature. The tubes containing the PRP are centrifuged at 16,000×g for 10 min. at 4° C. and the supernatant fluid discarded. The platelets resuspended in an equal volume of 50.0 mM Tris.HCl, pH 7.5 containing 120 mM NaCl and 20.0 mM EDTA. The suspension is recentrifuged at 16,000× g for 10 min. This washing step is repeated one more time. The wash discarded and the lysed pellets homogenized in low ionic strength buffer of Tris.HCl, 5.0 mM, pH 7.5 containing 5.0 mM EDTA. The homogenate is centrifuged at 39,000× g for 10 min. The resulting pellet is resuspended in Tris.HCl buffer, 70.0 mM, pH 7.5 and recentrifuged at 39,000× g for 10 min. The final pellet is resuspended in 50.0 mM Tris.HCl buffer pH 7.4 containing 120 mM NaCl and 5.0 mM KCl to give 1.0-2.0 mg protein per ml of suspension.
(b) Binding to Vasopressin V1 receptor subtype in Human Platelet Membranes
In wells of a 96 well format microtiter plate, add 100 μl of 50.0 mM Tris.HCl buffer containing 0.2% BSA and a mixture of protease inhibitors (aprotinin, leupeptin etc.). Then add 20 μl of [^3 H]Ligand (Manning or Arg^8 Vasopressin), to give final concentrations ranging from 0.01 to 10.0 nM. Initiate the binding by adding 80.0 μl of platelet suspension (approx. 100 μg protein). Mix all reagents by pipetting the mixture up and down a few times. Non specific binding is measured in the presence of 1.0 µM of unlabeled ligand (Manning or Arg^8 Vasopressin). Let the mixture stand undisturbed at room temperature for ninety (90) min. Upon this time, rapidly filter off the incubate under vacuum suction over GF/B filters, using a Brandel Harvester. Determine the radioactivity caught on the filter disks by the addition of liquid scintillant and counting in a liquid scintillator.

Another assay has as its system Vasopressin V2. The assay is described as follows: Vasopressin V2 Antagonist Activity in Conscious Hydrated Rats. It counts as in vivo, rat. The following applies: 10 mg/kg orally, AVP 0.4 μg/kg i.p.; for Osmolality: urine. The method, then: Two to four rats are used for each compound. One hour later, arginine vasopressin (AVP, antidiuretic hormore, ADH) dissolved in peanut oil is administered at 0.4 μg/kg intraperitoneally. Two rats in each test would not receive arginine vasopressin but only the vehicle (peanut oil) to serve as water-loading control. Twenty minutes later each rat is given 30 mL/kg of deionized water orally by gavage and is placed individually in a metabolic cage equipped with a funnel and a graduated glass cylinder to collect urine for four hours. Urine volume is measured and osmolality analyzed by use of a Fiske One-Ten osmometer (Fiske Assoc., Norwood, Mass., USA). Urinary sodium, potassium, and chloride are analyzed by use of ion-specific electrodes in a Beckman E3 (Electrolyte 3) Analyzer. In the following results, […] and decreased osmolality relative to AVP-control indicates activity.

The target of a further assay is T3, oxytocin receptors (Rattus norvegicus, UniProt P70536).
T3 construct: The uteri are dissected out, cleaned of fat and connective tissues; from tissue; host or cells: uteri of DES-treated female Sprague-Dawley rats
T3 sequence (P70536 1-388): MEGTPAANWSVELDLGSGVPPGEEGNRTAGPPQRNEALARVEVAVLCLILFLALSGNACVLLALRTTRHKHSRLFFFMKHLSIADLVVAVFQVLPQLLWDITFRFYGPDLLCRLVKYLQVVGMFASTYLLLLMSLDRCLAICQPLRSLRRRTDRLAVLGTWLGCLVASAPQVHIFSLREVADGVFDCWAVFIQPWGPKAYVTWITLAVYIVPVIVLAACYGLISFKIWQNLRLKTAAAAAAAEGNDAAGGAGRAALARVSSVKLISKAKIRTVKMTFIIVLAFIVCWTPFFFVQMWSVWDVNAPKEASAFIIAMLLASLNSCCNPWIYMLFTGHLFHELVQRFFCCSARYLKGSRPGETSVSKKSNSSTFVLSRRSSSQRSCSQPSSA
The assay is described as follows: Oxytocin Receptor Binding. Further details: species or system rat (female Sprague-Dawley). The following applies: for IC50: 1.0 nM [3H]OT. The method, then: Oxytocin Receptor Binding
Female Sprague-Dawley rats weighing approximately 200-250 g are injected intramuscularly (i.m.) with 0.3 mg/kg of body weight of diethylstilbestrol (DES). The rats are sacrificed 18 hours later under pentobarbital anesthesia. The uteri are dissected out, cleaned of fat and connective tissues and rinsed in 50 ml of normal saline. The tissue pooled from six rats is homogenized in 50 ml of […] Tris.HCl, containing 0.5 mM dithiothreitol and 1.0 mM EDTA, adjusted to pH 7.4, using a polytron at setting 6 with three passes of 10 sec each. The homogenate is passed through two (2) layers of cheesecloth and the filtrate centrifuged at 1000× g for 10 min. The clear supernatant is removed and recentrifuged at 165,000× g for 30 min. The resulting pellet containing the oxytocin receptors is resuspended in 50.0 mM Tris.HCl containing 5.0 mM MgCl2 at pH 7.4, to give a protein concentration of 2.5 mg/ml of tissue suspension. This preparation is used in subsequent binding assays with [^3 H]Oxytocin.
Binding of 3,5-[^3 H]Oxytocin ([^3 H]OT) to its receptors is done in microtiter plates using [^3 H]OT, at various concentrations, in an assay buffer of 50.0 mM Tris.HCl, pH 7.4 and containing 5.0 mM MgCl2, and a mixture of protease inhibitors: BSA, 0.1 mg; aprotinin, 1.0 mg; 1,10-phenanthroline, 2.0 mg; […], 10.0 mg; and PMSF, 0.3 mg per 100 ml of buffer solution. Non-specific binding is determined in the presence of 1.0 uM unlabeled OT. The binding reaction is terminated after 60 min., at 22° C., by rapid filtration through glass fiber filters using a Brandel, cell harvester (Biomedical Research and Development Laboratories,Inc., Gaithersburg, Md.). Competition experiments are conducted at equilibrium using 1.0 nM [^3 H]OT and varying the concentration of the displacing agents. The concentrations of agent displacing 50% of [^3 H]OT at its sites (IC50) are calculated by a computer assisted LUNDON-2 program (LUNDON SOFTWARE INC., Ohio, USA).

Another assay has as its system Vasopressin V1. Briefly: Vasopressin V1 Antagonist Activity in Conscious Rats (vasopressin vasopressor response). Type of assay: in vivo, rat. As to conditions: 30 mg/kg iv. The method, then: Vasopressin V1 Antagonist Activity in Conscious Rats Conscious rats are restrained in a supine position with elastic tape. The area at the base of the tail is locally anesthetized by subcutaneous in filtration with 2% procaine (0.2 ml). Using aseptic technique the ventral caudal tail artery is isolated and a cannula made of PE 10 and 20 (heat-fused) tubing is passed into the lower abdominal aorta. The cannula is secured, heparinized (1000 i.u./cc), sealed and the wound closed with one or two stitches of Dexon 4-0. The caudal vein is also cannulated in the same manner for intravenous drug administration. The duration of the surgery is approximately 5 minutes. Additional local anesthesia (2% procaine or lidocaine) is provided as needed. The animals are placed in plastic restraining cages in an upright position. The cannula is attached to a Statham P23Db pressure transducer and pulsatile blood pressure is recorded. […] Percentage of antagonism by the compound is calculated using the pre-drug vasopressin vasopressor response as 100%. The results of this test on representative compounds of this invention in which the dose, the maximum % inhibition and the time in minutes, are shown in Table III.

T2 sequence (P37288 whole entry): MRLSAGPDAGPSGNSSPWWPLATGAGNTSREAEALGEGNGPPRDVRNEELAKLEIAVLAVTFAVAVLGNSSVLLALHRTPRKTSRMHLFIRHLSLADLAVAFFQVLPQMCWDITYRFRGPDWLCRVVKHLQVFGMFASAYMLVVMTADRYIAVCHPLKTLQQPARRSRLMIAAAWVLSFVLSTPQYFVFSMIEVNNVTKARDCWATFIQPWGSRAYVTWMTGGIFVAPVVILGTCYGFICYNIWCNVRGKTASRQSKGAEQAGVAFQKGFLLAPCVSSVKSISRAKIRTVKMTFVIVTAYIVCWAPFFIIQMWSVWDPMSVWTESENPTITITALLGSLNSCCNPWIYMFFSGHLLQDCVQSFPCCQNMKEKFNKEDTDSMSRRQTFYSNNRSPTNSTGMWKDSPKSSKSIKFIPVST
T1 sequence (P30518 whole entry): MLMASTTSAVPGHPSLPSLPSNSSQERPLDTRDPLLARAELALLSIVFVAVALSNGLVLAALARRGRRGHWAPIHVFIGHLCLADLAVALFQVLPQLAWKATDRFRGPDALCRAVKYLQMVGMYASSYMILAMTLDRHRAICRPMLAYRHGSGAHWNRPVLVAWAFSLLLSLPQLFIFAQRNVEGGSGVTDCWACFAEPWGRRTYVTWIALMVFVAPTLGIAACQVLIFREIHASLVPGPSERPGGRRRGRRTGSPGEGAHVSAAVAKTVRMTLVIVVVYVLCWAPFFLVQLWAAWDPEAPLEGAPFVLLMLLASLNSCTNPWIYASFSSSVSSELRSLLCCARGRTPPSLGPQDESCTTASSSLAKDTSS

For the molecule `O=C(c1ccc(-c2cccs2)cc1)N1Cc2cccn2Cc2ccccc21` [drawing 73], the IC50 (in general, the concentration that gives 50% inhibition) came out at 510 nM in assay [1] and 13 nM in assay [2].

On to `O=C(c1ccc(-c2ccccc2[N+](=O)[O-])cc1)N1Cc2cccn2Cc2ccccc21` [Example 2, 10,11-Dihydro-10-[4-(2-nitrophenyl)benzoyl]-5H-pyrrolo[2,1-c][1,4]benzodiazepine], for which the IC50 in assay [1] is 96 nM; in assay [2], 64 nM; on oxytocin receptors it was 49 ± 3 nM. In the assay with Vasopressin V2, the “Urine Volume” value was 5.5 ml/4 hrs. Further, the Osmolality with Vasopressin V2 is given as 1257 mOsm/kg. At oxytocin receptors, the inhibition (in general, the change of the read-out against control, counted positive when it falls) at 10 µM stood at 100%.

In the case of `Cc1ccccc1-c1ccc(C(=O)N2Cc3cccn3Cc3ccccc32)cc1` [Example 5, 10,11-Dihydro-10-[4-(2-methylphenyl)benzoyl]-5H-pyrrolo[2,1-c][1,4]benzodiazepine], the IC50 in assay [1] was determined as 2000 nM. In the assay on Vasopressin V2, the “Urine Volume” value was found to be 7.8 ml/4 hrs and the Osmolality is 992 mOsm/kg. In assay [2], this molecule returned an IC50 of 88 nM.

Regarding `O=C(c1ccc(-c2cccs2)nc1)N1Cc2cccn2Cc2ccccc21` [Example 22], the IC50 in assay [1] is 3600 nM; in assay [2], 960 nM; at oxytocin receptors, 480 nM. On oxytocin receptors, 10 µM produced 98% inhibition.

As for `Cc1ccc(Oc2ccc(C(=O)N3Cc4cccn4Cc4ccccc43)cc2)cc1` [Example 18, 10,11-Dihydro-10-[4-(4-methylphenoxy)benzoyl]-5H-pyrrolo[2,1-c][1,4]benzodiazepine], in the assay with Vasopressin V2, the “Urine Volume” value came out at 5.3 ml/4 hrs and the Osmolality is 919 mOsm/kg. Also, the “Time (of maximum % inhibition)” value in the assay on Vasopressin V1 is recorded as 300 min. In addition, the “Max % Inhibition” value with Vasopressin V1 (vasopressin vasopressor response) is 36%. In assay [2], this molecule returned an IC50 of 280 nM. On oxytocin receptors, this molecule registered an inhibition at 10 µM of 99% and an IC50 of 120 nM.

In the case of `CN(C)Cc1ccc2n1Cc1ccccc1N(C(=O)c1ccc(-c3cccs3)cc1)C2` [Example 6, 10,11-Dihydro-3-[(dimethylamino)methyl]-10-[4-(2-thienyl)benzoyl]-5H-pyrrolo[2,1-c][1,4]benzodiazepine], the figures for the IC50 (in assay [1]; in assay [2]; at oxytocin receptors) were 15000 nM, 63 nM and 330 nM, respectively. The same molecule yielded an inhibition at 10 µM at oxytocin receptors of 100%.

The molecule `CCCc1ccc(-c2ccc(C(=O)N3Cc4cccn4Cc4ccccc43)cc2)cc1` [Example 21, 10,11-Dihydro-10-[(4'-propyl[1,1'-biphenyl]-4-yl)carbonyl]-5H-pyrrolo[2,1-c][1,4]benzodiazepine] had an IC50 in assay [1] of 58 nM. For the same molecule, in the assay with Vasopressin V2, the “Urine Volume” value was found to be 4.5 ml/4 hrs and the Osmolality is 1347 mOsm/kg. In assay [2], this molecule returned a half-maximal inhibitory concentration (IC50) of 12 nM. Moreover, at oxytocin receptors, testing at 10 µM gave an inhibition of 68%.

(Values after patent US5521173A, “Tricyclic benzazepine vasopressin antagonists” (American Home Products Corporation, priority 1995, dated 1996).)
